Laboratory results from publication PMC4848510, “Foldamer-mediated manipulation of a pre-amyloid toxin” (Nature Communications, 2016).

Experiments:
INS-1 cells = experiment: Rescue of INS-1 cells from IAPP-induced toxicity (CellTiter Blue); details: 13 μM IAPP; for rescue of IAPP-induced toxicity, co-addition: small molecule co-added 1:1, 48 h, n=24
Procedure: Cells were passaged on reaching ∼95% confluence (0.25% Trypsin-EDTA, Life Technologies), propagated and/or used in experiments. Cells used in experiments were pelleted and resuspended in fresh media with no Trypsin-EDTA.
Cell viability was measured colourimetrically using the CellTiter Blue (CTB, Promega, Madison, WI, USA) fluorescence-based assay. Cells were plated at a density 5,000 cells per well in 96-well plates (BD Biosciences, San Diego, CA). Peptide was directly introduced to each well after 48 h of culture and then further incubated for an additional 48 h. For time-dependent experiments, cells were incubated with peptide for the specified time points. After the incubation period, 20-μl CellTiter Blue reagent was added to each well and incubated at 37 °C and 5% CO2 for 2.5–3.5 h. Fluorescence of the resorufin product was measured on a FluoDia T70 fluorescence plate reader (Photon Technology International, Birmingham, NJ, USA). All wells included the same amount of water to account for different concentrations of peptide added to sample wells. Wells that included water vehicle but not peptide served as the negative control (0% toxic), and wells containing 10% DMSO were the positive control (100% toxic). Per cent toxicity was calculated using the following equation:
Each independent variable is the average of eight plate replicates from the negative control (<N>), positive control (<P>) and samples (<S>). Results presented for viability experiments are an average of three such experiments conducted independently on different days. Error bars represent the s.e.m.

[1] = IAPP fibre formation in solution without LUVs (ThT); type: physicochemical, human; details: 10 μM IAPP, no LUVs, at least triplicate, ±1 s.d.
Procedure: Amyloid reactions were conducted in buffer containing liposome (630 μM lipid) and 20 μM ThT in a black 96-well plate. This was followed by the addition of small molecule dissolved in dimethylsulphoxide (DMSO; final DMSO concentration=0.5%, v/v). Fibre formation was initiated by the addition of IAPP stock solution. The final volume in each well was 200 μl. Kinetics of fibrillation was monitored by ThT fluorescence (excitation 450 nm and emission 485 nm), using a FluoDia T70 fluorescence plate reader (Photon Technology International, Edison, NJ, USA). The data were blank subtracted and renormalized to the maximum intensity of reactions containing only IAPP. Each kinetic trace was fit to a sigmoidal form: […]
(§1) where I is the fluorescence intensity, t is time, and b, m and τ are dependent fitting variables. All samples were run at least in triplicate and error bars shown in the text represent ±1 s.d.
Supplementary Figure 1: Kinetic profiles of IAPP self-assembly. a, Three representative kinetic profiles for a standard reaction of 10 µM IAPP catalysed by the presence of 630 µM LUVs (DOPG:DOPC, 1:1, 100 nm) (inset) A representative sigmoid fit (magenta) used to extract reaction midpoints, t50. b, Representative comparison of the kinetic profiles of (10 µM) IAPP fibrillation in the absence (black) and presence (red) of 630 µM LUVs. […]

IAPP = target: T1, IAPP (Homo sapiens, UniProt P10997); experiment: LUV-catalysed IAPP fibre formation kinetic assay (ThT fluorescence); type: biochemical; details: 10 μM IAPP, 1:1 IAPP:small molecule, 630 μM LUVs DOPG:DOPC 1:1; ND = no kinetics over time of observation
T1 construct: IAPP is a 37-residue peptide co-packaged with insulin in pancreatic β-cells; purchased Genscript; Elim Biopharmaceuticals
T1 sequence (P10997 34-70 limits assumed): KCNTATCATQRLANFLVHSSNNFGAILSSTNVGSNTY
Procedure: Unless otherwise stated, LUVs used in this work were prepared from a 1:1 mixture of DOPG/DOPC. The lyophilized mixture was hydrated in 100 mM KCl, 50 mM sodium phosphate and pH 7.4 for 20 min. A 20mg ml^−1 solution of lipid in buffer was passed 21 times through a polycarbonate membrane (pore diameter=100 nm). The phospholipid content of the final material was measured using a total phosphorous assay.
Amyloid reactions were conducted in buffer containing liposome (630 μM lipid) and 20 μM ThT in a black 96-well plate. This was followed by the addition of small molecule dissolved in dimethylsulphoxide (DMSO; final DMSO concentration=0.5%, v/v). Fibre formation was initiated by the addition of IAPP stock solution. The final volume in each well was 200 μl. Kinetics of fibrillation was monitored by ThT fluorescence (excitation 450 nm and emission 485 nm), using a FluoDia T70 fluorescence plate reader (Photon Technology International, Edison, NJ, USA). The data were blank subtracted and renormalized to the maximum intensity of reactions containing only IAPP. Each kinetic trace was fit to a sigmoidal form:
as §1

[2] = system: Src and its homologue, Abl; details: cited from earlier work
From the text: Dynamic binding modes, such as conformational selection, are often observed in protein:ligand interactions. A recent example is the anti-cancer drug Gleevec[8]. Gleevec binds to structurally identical sites in Src and its homologue, Abl. […] It stands to reason that the internal degrees of freedom of ligands should be similarly exploitable. However, ligand dynamics are viewed unfavourably as a result of entropy loss on binding. The non-covalent and reversible stabili ...

| Molecule | decrease of INS-1 viability (INS-1 cells; 48 h incubation) [%] | reaction midpoint t50 of IAPP assembly into fibres in solution [1] [h] | rescue of IAPP-induced toxicity, co-addition (INS-1 cells) | t50 / (t50 IAPP only), inhibition of LUV-catalysed fibre formation (IAPP) | difference in binding affinity between Src and Abl [2] |
| --- | --- | --- | --- | --- | --- |
| CC[C@H](C)[C@H](NC(=O)[C@H](C)NC(=O)CNC(=O)[C@H](Cc1ccccc1)NC(=O)[C@H](CC(N)=O)NC(=O)[C@H](CC(N)=O)NC(=O)[C@H](CO)NC(=O)[C@H](CO)NC(=O)[C@H](Cc1c[nH]cn1)NC(=O)[C@@H](NC(=O)[C@H](CC(C)C)NC(=O)[C@H](Cc1ccccc1)NC(=O)[C@H](CC(N)=O)NC(=O)[C@H](C)NC(=O)[C@H](CC(C)C)NC(=O)[C@H](CCCNC(=N)N)NC(=O)[C@H](CCC(N)=O)NC(=O)[C@@H](NC(=O)[C@H](C)NC(=O)[C@@H]1CSSC[C@H](NC(=O)[C@@H](N)CCCCN)C(=O)N[C@@H](CC(N)=O)C(=O)N[C@@H]([C@@H](C)O)C(=O)N[C@@H](C)C(=O)N[C@@H]([C@@H](C)O)C(=O)N1)[C@@H](C)O)C(C)C)C(=O)N[C@@H](CC(C)C)C(=O)N[C@@H](CO)C(=O)N[C@@H](CO)C(=O)N[C@H](C(=O)N[C@@H](CC(N)=O)C(=O)N[C@H](C(=O)NCC(=O)N[C@@H](CO)C(=O)N[C@@H](CC(N)=O)C(=O)N[C@H](C(=O)N[C@@H](Cc1ccc(O)cc1)C(N)=O)[C@@H](C)O)C(C)C)[C@@H](C)O [IAPP] | 78±8 | 18 ± 1.4 |  |  |  |
| Oc1ccc(/C=C/c2cc(O)cc(O)c2)cc1 [resveratrol] |  |  | ineffective in rescuing toxicity | no detectable effect |  |
| Cc1ccc(NC(=O)c2ccc(CN3CCN(C)CC3)cc2)cc1Nc1nccc(-c2cccnc2)n1 [Gleevec] |  |  |  |  | > 1,000 fold |
| O=C(O[C@@H]1Cc2c(O)cc(O)cc2O[C@@H]1c1cc(O)c(O)c(O)c1)c1cc(O)c(O)c(O)c1 [EGCG, epigallocatechin gallate] |  |  | ineffective in rescuing toxicity | no detectable effect |  |
| acid fuchsin |  |  | ineffective in rescuing toxicity | no detectable effect |  |
